Consider 16 molecules from US8133884B2, “Compounds for the treatment of hepatitis C” (priority 2008, dated 2012).

Assay [1] deals with HCV replicon. Put plainly: HCV replicon assay (FRET or luciferase reporter). The format is cell-based. The following applies: Hepatitis C virus, one of the methods described. An outline of the steps: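 HCV replicon Huh-7 cells were exposed to titrated compound at 37 °C, with Alamar blue as a cytotoxicity read. Replication was measured by NS3 cleavage of an EDANS/DABCYL FRET peptide (20 μM, 340/490 nm kinetic read) or by Renilla luciferase, with background from high-dose protease inhibitor wells. EC50 was taken as 50% signal reduction; a 384-well format used 3.0×10^3 cells/well, 0.5% DMSO and 3 days.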

The target in assay [2] is T1, HCV NS5B (Hepatitis C virus genotype 1b, UniProt Q9WMX2).
T1 construct: The protein was expressed with an 18 amino acid C-terminal truncation to enhance the solubility; made in house; host or cells: E. coli BL21(DE3)
T1 sequence (Q9WMX2 2420-2992): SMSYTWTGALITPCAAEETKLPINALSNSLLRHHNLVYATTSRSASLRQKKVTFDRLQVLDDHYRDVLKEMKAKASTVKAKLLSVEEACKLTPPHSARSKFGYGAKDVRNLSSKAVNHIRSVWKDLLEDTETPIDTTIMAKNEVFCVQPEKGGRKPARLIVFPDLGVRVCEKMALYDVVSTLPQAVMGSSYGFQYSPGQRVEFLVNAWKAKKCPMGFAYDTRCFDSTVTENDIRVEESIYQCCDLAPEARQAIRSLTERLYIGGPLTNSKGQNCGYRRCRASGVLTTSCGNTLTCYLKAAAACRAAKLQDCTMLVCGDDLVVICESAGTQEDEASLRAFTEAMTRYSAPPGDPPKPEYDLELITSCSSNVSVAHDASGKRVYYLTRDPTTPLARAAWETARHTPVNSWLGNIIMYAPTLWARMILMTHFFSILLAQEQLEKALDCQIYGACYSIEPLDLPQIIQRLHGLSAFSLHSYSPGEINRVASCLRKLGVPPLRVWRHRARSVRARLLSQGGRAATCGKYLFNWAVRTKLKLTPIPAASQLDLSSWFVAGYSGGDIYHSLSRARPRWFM
The assay can be described thus: Modified HCV NS5B RdRp enzyme assay (preincubation protocol). Format: biochemical. A digest of the protocol: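 C-terminally truncated (Δ18) genotype 1b NS5B from E. coli, 14 nM, added to compound first, then polyA template (0.2 nM), 3H-UTP (0.29 μM) and oligo-dT12 primer precaptured on streptavidin SPA beads (20 nM). Run 4 h at 30° C, pH 7.5, 2% DMSO; IC50 fitted from seven concentrations.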

One may read the EC50 as the midpoint of the concentration-response curve. As usually defined, the IC50 is the concentration needed to halve the response being measured. Low readings indicate greater potency in that assay, high ones weaker potency in that assay. `COc1ccc2c(c1)C=C(c1c(C(=O)N3CCOCC3)cnn1C1CC1)Cn1c-2c(C2CCCCC2)c2ccc(C(=O)NS(=O)(=O)C(C)C)cc21` yielded an EC50 in assay [1] (class symbol) of 1.7 to 500 nM. The molecule further came in with an IC50 in assay [2] (class symbol) of 1.7 to 500 nM.

Molecule `COc1ccc2c(c1)C=C(c1c(C(=O)N3CC4CCC(C3)N4C)cnn1C1CCC1)Cn1c-2c(C2CCCCC2)c2ccc(C(=O)NS(=O)(=O)C(C)C)cc21` came in with an EC50 in assay [1] (class symbol) of 1.7 to 500 nM. This molecule registered a 50% inhibitory concentration (IC50) in assay [2] (class symbol) of 1.7 to 500 nM.

Take `COc1ccc2c(c1)C=C(c1c(C(=O)N3C4CCC3CC(C)(O)C4)cnn1C1CCN(C)CC1)Cn1c-2c(C2CCCCC2)c2ccc(C(=O)NS(=O)(=O)C(C)C)cc21` (centres unmarked): the EC50 in assay [1] (class symbol) is 1.7 to 500 nM; in assay [1] (exact value), 10 nM. Moreover, the IC50 is 1.7 to 500 nM in assay [2] (class symbol) and 96 nM in assay [2] (exact value).

In assay [1] (class symbol), `CCOC(=O)c1cnn(-c2ccncc2C)c1C1=Cc2cc(OC)ccc2-c2c(C3CCCCC3)c3ccc(C(=O)NS(=O)(=O)C(C)C)cc3n2C1` gave an EC50 of 1.7 to 500 nM. Further, the IC50 in assay [2] (class symbol) fell in the range of 1.7 to 500 nM.

`CCN1C[C@@H]2C[C@H]1CN2C(=O)c1c(C)nn(C2CCC2)c1C1=Cc2cc(OC)ccc2-c2c(C3CCCCC3)c3ccc(C(=O)NS(=O)(=O)C(C)C)cc3n2C1`: the EC50 in assay [1] (class symbol) was in the range of 1.7 to 500 nM. This molecule showed an IC50 in assay [2] (class symbol) of 1.7 to 500 nM.

As for `CCN1C[C@@H]2C[C@H]1CN2C(=O)c1cnn(C2CCOCC2)c1C1=Cc2cc(OC)ccc2-c2c(C3CCCCC3)c3ccc(C(=O)NS(=O)(=O)C(C)C)cc3n2C1`, in assay [1] (class symbol), the EC50 is 1.7 to 500 nM. This molecule registered an IC50 in assay [2] (class symbol) of 1.7 to 500 nM.

Molecule `COc1ccc2c(c1)C=C(c1c(C(=O)N3C[C@@H]4C[C@H]3CO4)c(C)nn1C1CCC1)Cn1c-2c(C2CCCCC2)c2ccc(C(=O)NS(=O)(=O)C(C)C)cc21` yielded an EC50 in assay [1] (class symbol) of 1.7 to 500 nM. In assay [2] (class symbol), this molecule had an IC50 of 1.7 to 500 nM.

Regarding `COCC1CN(C(=O)c2cnn(C3CCN(C)CC3)c2C2=Cc3cc(OC)ccc3-c3c(C4CCCCC4)c4ccc(C(=O)NS(=O)(=O)C(C)C)cc4n3C2)CCO1` (centres unmarked), the EC50 in assay [1] (class symbol) was 1.7 to 500 nM. The molecule also displayed an IC50 in assay [2] (class symbol) of 1.7 to 500 nM.

With `COCCN(CCOC)C(=O)c1cnn(C2CCC2)c1C1=Cc2cc(OC)ccc2-c2c(C3CCCCC3)c3ccc(C(=O)NS(=O)(=O)C(C)C)cc3n2C1`, in assay [1] (class symbol), the EC50 fell in the range of 1.7 to 500 nM. Moreover, the IC50 in assay [2] (class symbol) is 1.7 to 500 nM.

Molecule `COc1ccc2c(c1)C=C(c1c(C(=O)N3C[C@@H](C)O[C@@H](C)C3)noc1C1CC1)Cn1c-2c(C2CCCCC2)c2ccc(C(=O)NS(=O)(=O)N(C)C)cc21` gave an EC50 in assay [1] (class symbol) of 1.7 to 500 nM. In assay [2] (class symbol), the IC50 lay within 1.7 to 500 nM.

As for `COCC1CN(C(=O)c2cnn(-c3ccncc3C)c2C2=Cc3cc(OC)ccc3-c3c(C4CCCCC4)c4ccc(C(=O)NS(=O)(=O)C(C)C)cc4n3C2)CCO1` (centres unmarked), the EC50 in assay [1] (class symbol) was 1.7 to 500 nM; in assay [1] (exact value) it was 170 nM. In addition, the IC50 was 1.7 to 500 nM in assay [2] (class symbol) and 5.5 nM in assay [2] (exact value).

As for `COc1ccc2c(c1)C=C(c1c(C(=O)N3C4COCC3COC4)cnn1C1CCN(C)CC1)Cn1c-2c(C2CCCCC2)c2ccc(C(=O)NS(=O)(=O)C(C)C)cc21`, the EC50 in assay [1] (class symbol) was 1.7 to 500 nM; in assay [1] (exact value) it was 130 nM. In addition, the 50% inhibitory concentration (IC50) in assay [2] (class symbol) is 1.7 to 500 nM; in assay [2] (exact value) it was 7.5 nM.

In turn, `COc1ccc2c(c1)C=C(c1c(C(=O)N3CCOCC3)c(C)nn1C1CCC1)Cn1c-2c(C2CCCCC2)c2ccc(C(=O)NS(=O)(=O)C(C)C)cc21` had an EC50 in assay [1] (class symbol) of 1.7 to 500 nM. In assay [2] (class symbol), the IC50 was in the range of 1.7 to 500 nM.

In assay [1] (class symbol), `COc1ccc2c(c1)C=C(c1c(C(=O)N3CCOCC3)cnn1-c1ccncc1C)Cn1c-2c(C2CCCCC2)c2ccc(C(=O)NS(=O)(=O)C(C)C)cc21` gave an EC50 of 1.7 to 500 nM. The IC50 in assay [2] (class symbol) lay in the range of 1.7 to 500 nM.

In assay [1] (class symbol), `COc1ccc2c(c1)C=C(c1c(C(=O)N3C[C@@H](C)O[C@@H](C)C3)cnn1C1CCC1)Cn1c-2c(C2CCCCC2)c2ccc(C(=O)NS(=O)(=O)CC(C)C)cc21` had an EC50 of 1.7 to 500 nM. The half-inhibitory concentration (IC50) in assay [2] (class symbol) was 1.7 to 500 nM.

Take `COc1ccc2c(c1)C=C(c1c(C(=O)N3C[C@@H](C)O[C@@H](C)C3)cnn1-c1ccncc1C)Cn1c-2c(C2CCCCC2)c2ccc(C(=O)NS(=O)(=O)C(C)C)cc21`: the EC50 in assay [1] (class symbol) was in the range of 1.7 to 500 nM. In assay [2] (class symbol), this molecule returned a 50% inhibitory concentration (IC50) of 1.7 to 500 nM.
